Data: patent US8686050B2, “Diglycidic ether derivative therapeutics and methods for their use” (British Columbia Cancer Agency Branch, priority 2008, dated 2014)
“Also recorded” adds a separate entry of the source. Where a name gives a salt, the structure may show the parent alone.

Tests used:
[1] = molecular target: T1, AR interaction with the ARE on the PSA enhancer (Homo sapiens, UniProt P10275, T878A); assay: ChIP of AR on the PSA enhancer ARE in LNCaP cells; type: cell-based; settings: DHT 3 h or 16 h, 185-9-2 10 μg/ml
T1 construct: LNCaP cells express endogenous AR and secrete prostate-specific antigen (PSA); endogenous in cells; host or cells: LNCaP
T1 sequence (P10275 1-920 T878A): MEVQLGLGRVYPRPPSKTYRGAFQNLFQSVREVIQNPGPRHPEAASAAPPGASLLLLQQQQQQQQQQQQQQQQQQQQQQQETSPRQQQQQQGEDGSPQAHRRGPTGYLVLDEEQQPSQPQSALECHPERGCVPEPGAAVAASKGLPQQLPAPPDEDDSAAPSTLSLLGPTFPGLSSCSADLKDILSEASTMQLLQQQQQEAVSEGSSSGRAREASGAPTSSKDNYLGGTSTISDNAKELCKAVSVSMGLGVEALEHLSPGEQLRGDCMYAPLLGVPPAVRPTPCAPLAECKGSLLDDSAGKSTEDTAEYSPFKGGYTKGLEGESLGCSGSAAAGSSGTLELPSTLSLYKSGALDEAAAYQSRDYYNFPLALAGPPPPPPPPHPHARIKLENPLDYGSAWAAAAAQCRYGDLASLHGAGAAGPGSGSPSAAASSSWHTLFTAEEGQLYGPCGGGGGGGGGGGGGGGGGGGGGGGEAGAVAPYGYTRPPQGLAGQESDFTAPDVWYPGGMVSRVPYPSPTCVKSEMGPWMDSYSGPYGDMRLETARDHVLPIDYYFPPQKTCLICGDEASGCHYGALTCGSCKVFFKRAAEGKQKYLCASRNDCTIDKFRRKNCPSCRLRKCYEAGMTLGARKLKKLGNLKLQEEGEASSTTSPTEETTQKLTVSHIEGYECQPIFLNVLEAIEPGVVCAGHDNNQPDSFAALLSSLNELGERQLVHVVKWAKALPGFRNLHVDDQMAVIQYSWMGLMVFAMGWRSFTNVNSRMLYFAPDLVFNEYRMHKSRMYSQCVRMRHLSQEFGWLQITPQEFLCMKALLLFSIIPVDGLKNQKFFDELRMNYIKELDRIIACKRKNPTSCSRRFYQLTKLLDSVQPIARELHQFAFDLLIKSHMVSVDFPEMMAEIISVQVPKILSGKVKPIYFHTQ

PSA mRNA = assay: Endogenous PSA mRNA in LNCaP cells by QRT-PCR; type: cell-based, human; settings: 185-9-2 5 μg/ml, R1881 1 nM 16 hours, normalized to GAPDH mRNA
Procedure: Induction of PSA mRNA by both R1881 (ligand-dependent) and FSK (ligand-independent) in LNCaP cells is dependent upon AR (Sadar, M. D., J. Biol. Chem. 274, 7777-7783 (1999); Wang G, Jones S J, Marra M A, Sadar M D, Oncogene 2006; 25:7311-23.). To test whether the compounds have an effect on endogenous gene expression, the levels of PSA mRNA in LNCaP cells exposed to R1881 were measured. LNCaP cells (in serum-free and phenol-red free media) were incubated with compounds for 1 hour before the addition of R1881 (1 nM) for an additional 16 hours before harvesting and isolating total RNA. Levels of mRNA were measured using QPCR. Levels of PSA mRNA were normalized to levels of GAPDH mRNA.

[2] = molecular target: T2, progesterone receptor (PR) (Homo sapiens, UniProt P06401); assay: PRE-luciferase reporter, steroid receptor specificity; type: cell-based; settings: LNCaP cells transfected with PR, steroid 10 nM; 185-9-2 5 μg/ml, bicalutamide 10 μM
T2 construct: Cells were co-transfected with expression plasmids for full-length hGR, PRβ and the relative reporter; expressed in transfected cells; host or cells: LNCaP
T2 sequence (P06401 1-933): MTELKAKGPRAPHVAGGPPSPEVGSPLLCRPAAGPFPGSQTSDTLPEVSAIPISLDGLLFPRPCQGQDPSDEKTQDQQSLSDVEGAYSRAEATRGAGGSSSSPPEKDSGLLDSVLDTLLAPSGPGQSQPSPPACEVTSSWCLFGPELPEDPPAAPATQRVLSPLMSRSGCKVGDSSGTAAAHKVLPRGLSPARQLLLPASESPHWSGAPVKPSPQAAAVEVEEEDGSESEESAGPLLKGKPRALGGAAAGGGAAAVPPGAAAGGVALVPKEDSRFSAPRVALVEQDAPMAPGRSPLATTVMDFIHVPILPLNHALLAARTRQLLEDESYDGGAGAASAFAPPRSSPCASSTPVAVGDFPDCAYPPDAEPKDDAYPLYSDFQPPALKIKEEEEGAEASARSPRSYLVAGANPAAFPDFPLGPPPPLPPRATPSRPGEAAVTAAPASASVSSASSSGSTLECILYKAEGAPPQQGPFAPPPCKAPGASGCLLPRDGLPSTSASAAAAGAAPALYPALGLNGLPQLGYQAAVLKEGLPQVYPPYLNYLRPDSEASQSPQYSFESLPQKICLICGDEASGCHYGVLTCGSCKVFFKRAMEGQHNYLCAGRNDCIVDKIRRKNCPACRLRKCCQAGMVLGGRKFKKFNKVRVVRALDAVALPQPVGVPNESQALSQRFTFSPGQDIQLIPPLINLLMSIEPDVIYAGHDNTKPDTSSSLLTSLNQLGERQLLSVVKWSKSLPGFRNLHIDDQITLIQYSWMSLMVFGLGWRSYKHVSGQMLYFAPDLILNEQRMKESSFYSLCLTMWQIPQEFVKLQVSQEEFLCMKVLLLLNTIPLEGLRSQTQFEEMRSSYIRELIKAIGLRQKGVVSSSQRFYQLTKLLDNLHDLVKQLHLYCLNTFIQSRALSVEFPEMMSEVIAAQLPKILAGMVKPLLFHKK
Procedure: Sequence similarities of amino acids in the AR with related human steroid receptors PR and glucocorticoid receptor (GR) are significant in some domains such as the DBD. The AR NTD shares less than 15% homology with the PR and GR, but these receptors interact with some of the same proteins (eg., SRC-1 and CBP). […] Cells were co-transfected with expression plasmids for full-length hGR, PRβ and the relative reporter (i.e., pGR-Luc or PRE-E1b-Luc reporters). Cells were then treated with ethanol vehicle, dexamethasone (GR), 4-pregnene-3,20 dione (progesterone) (PR) followed by measurement of luciferase activity. […] Some antiandrogens currently used in the clinic have progestational and glucocorticoidal activities. In adult males, the role of the PR activity is unclear.

SMILES: CC(C)(c1ccc(OCC(O)CO)cc1)c1ccc(OCC(O)CCl)cc1 (stereo not drawn) [185-9-2, BADGE.HCL.H2O]
- AR interaction with the ARE on the PSA enhancer in response to androgen (ChIP) [1]: inhibited AR interaction with the ARE
- endogenous PSA mRNA induction by R1881 (PSA mRNA): to almost baseline levels; also recorded: inhibited endogenous PSA gene expression
- PRE-luciferase activity in response to ligand [2]: did NOT inhibit; also recorded: does NOT inhibit
